Laboratory results published in patent publication US20100184815A1 (priority 2008, published 2010).

Experiments:
[1] = Metabolism studies using human liver microsomal preparations; assay type: in vitro ADME; conditions: for HLMs t1/2 (min) / half-life: pooled human liver microsomes, with NADPH (CYP system active), 37° C.; for HLMs Predominant Enzyme: comparison of half life with and without NADPH: Esterase, CYP or Mixed; for half-life: pH 7.4, read-out: HLMs t1/2
Method: Compounds were incubated in pooled human liver microsomes (HLMs) in the presence or absence of an NADPH-generating system. NADPH is required for the activity of cytochrome P450 (CYP) and other oxidative enzymes present in HLMs, but not for esterase activity. An additional incubation was carried out in the absence of HLM to assess compound stability. The disappearance of parent and the appearance of the corresponding acid metabolite were monitored over the time course of the incubations using LC-MS/MS.
A stock solution (20 mM) of each proprietary compound in DMSO was prepared and store at −20° C. until needed. A working stock solution (0.2 mM) was prepared for each proprietary compound by adding an aliquot of the stock solution (10 μL) to acetonitrile (990 μL).
An aliquot of the HLM solution was removed from the −80° C. freezer and placed on ice. Tris Buffer (50 mM, pH 7.4) containing MgCl2 (hexahydrate, 5 mM) was pre-incubated in a 37° C. water bath. A set of Eppendorf microfuge tubes (1.5 mL) was appropriately labeled. To each tube was added Tris buffer with or without the NADPH generating system. An aliquot of pooled HLMs was added to all the incubations except those that were the buffer control.
Tubes were preincubated for 5 min in a shaking incubator bath (37° C., 900 rpm) and the reaction was initiated by adding an aliquot of the proprietary working solution (5 μL). The additions were timed carefully in order to coordinate the sample collections below. A small aliquot (50 μL) was removed at […] and delivered to the respective tubes containing dextrorphan (100 μL of 0.5 μg/mL solution) in dissolved in methanol or acetonitrile. The samples were centrifuged at 14000 g for 15 minutes at 4° C. The supernatant was transferred to clean labeled HPLC injection vials and stored at −80° C. until analyzed. An aliquot of the supernatant […] was added to water (75 μL), mixed and injected onto the LC-MS/MS system for analysis.
“HLM t1/2” represents the observed half life of the compound under conditions that included NADPH, i.e., the CYP system was active. Comparison to the half life of the test article under (−)NADPH conditions, the enzyme predominant ly responsible for the metabolism of the test article. […] Where roughly equal metabolism is seen by each enzyme system, “mixed” is noted in the “Predominant enzyme” column.

[2] = molecular target: T1, Full Length hPPARα (Homo sapiens, UniProt Q07869); test: Full length hPPARα transfection assay; assay type: cell-based; conditions: full length receptor; read-out: Full Length hPPAR α EC50 (scaled number)
T1 construct: Full Length; expressed in transfected cells; host or cells: Cos cells
T1 sequence (Q07869 1-468): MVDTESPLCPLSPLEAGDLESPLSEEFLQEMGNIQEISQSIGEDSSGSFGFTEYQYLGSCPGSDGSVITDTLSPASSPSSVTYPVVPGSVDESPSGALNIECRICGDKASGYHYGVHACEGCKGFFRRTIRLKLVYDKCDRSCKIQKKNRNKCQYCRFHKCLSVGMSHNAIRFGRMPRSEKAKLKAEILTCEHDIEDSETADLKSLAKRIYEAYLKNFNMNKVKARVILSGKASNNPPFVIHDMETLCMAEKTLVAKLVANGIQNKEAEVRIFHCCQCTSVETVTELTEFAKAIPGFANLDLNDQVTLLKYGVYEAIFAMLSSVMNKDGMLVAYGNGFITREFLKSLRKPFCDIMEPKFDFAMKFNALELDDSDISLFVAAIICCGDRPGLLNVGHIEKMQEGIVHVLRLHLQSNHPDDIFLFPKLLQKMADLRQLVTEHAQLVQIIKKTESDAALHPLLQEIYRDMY
Method: Transient transfection assays. Cos cells were seeded in 60-mm dishes at a density of 5.5×10^5 cells/dish in Dulbecco's modified Eagle's medium (DMEM) supplemented with 10% fetal calf serum (FCS) and incubated at 37° C. for 24 hours before transfection. Cells were transfected in Opti-MEM (Gibco; Invitrogen, Carlsbad, Calif.) without FCS for 3 hours at 37° C., using polyethylenimine, with reporter and expression plasmids. The plasmid pBluescript (Stratagene, La Jolla, Calif.) was used as carrier DNA to set the final amount of DNA to 5.5 μg/dish. The pCMV-b-galactosidase expression plasmid was cotransfected as a control for transfection efficiency. Transfection was stopped by the addition of DMEM supplemented with 10% FCS, and cells were then incubated at 37° C. After 16 hours, cells were trypsinized and seeded in 96-well plates at the density of 2×10^4 cells/well and incubated for 6 hours in 10% FCS-containing DMEM. Cells were then incubated for 24 hours in DMEM containing 0.2% FCS and increasing concentrations of the compound tested or vehicle (DMSO). At the end of the experiment, cells were washed once with ice-cold PBS, lysed and the luciferase and b-galactosidase assays were performed in a luminometer and spectrophotomer. Transfection efficiencies were normalized with the b-galactosidase activity assay. Half-maximal effective concentration (EC50) was estimated using Prism software (GraphPad). All transfection experiments were performed at least three times.
In the following tables, proprietary compound EC50 values for hPPAR α, β, δ and γ are shown. The EC50 value is the concentration of a drug that induces a response halfway between the baseline and maximum, and is commonly used as a measure of drug potency. EC50 values are reported on a scale of 1 through 5, wherein the value scale is defined for each receptor as follows: […]

| HLMs t1/2 (min) [1] | EC50 [2] | HLMs Predominant Enzyme [1] | half-life [1] | Compound |
| --- | --- | --- | --- | --- |
| Stable | < 1 nM |  |  | Cc1ccc(Cn2cc(COC(=O)c3ccc(SC(C)(C)C(=O)O)cc3)cn2)cc1 [Compound 3, 2-methyl-2-(4-(((1-(4-methylbenzyl)-1H-pyrazol-4-yl)methoxy)carbonyl)phenylthio)propanoic acid] |
|  | < 1 nM | CYP | > 1.5 h | CCCCCCn1c(COC(=O)c2ccc(OC(C)(C)C(=O)O)cc2)nn(Cc2ccc(C(C)(C)C)cc2)c1=O [Compound 188, 2-(4-(((1-(4-tert-butylbenzyl)-4-hexyl-5-oxo-4,5-dihydro-1H-1,2,4-triazol-3-yl)methoxy)carbonyl)phenoxy)-2-methylpropanoic acid] |
|  |  | Esterase | 0.417 h | COC(c1ccc(Cn2cc(COC(=O)c3ccc(SC(C)(C)C(=O)O)cc3)nn2)cc1)(C(F)(F)F)C(F)(F)F [Compound 75, 2-(4-(((1-(4-(1,1,1,3,3,3-hexafluoro-2-methoxypropan-2-yl)benzyl)-1H-1,2,3-triazol-4-yl)methoxy)carbonyl)phenylthio)-2-methylpropanoic acid] |
|  |  | Esterase | 2.13 h | Cc1ccc(Cn2cc([C@@H](C)OC(=O)c3ccc(SC(C)(C)C(=O)O)cc3)nn2)cc1 [Compound 87, (R)-2-methyl-2-(4-((1-(1-(4-methylbenzyl)-1H-1,2,3-triazol-4-yl)ethoxy)carbonyl)phenylthio)propanoic acid] |
| Stable | 1 to 50 nM |  |  | CCCn1c(COC(=O)c2ccc(OC(C)(C)C(=O)O)cc2)nn(Cc2ccc(C(C)(C)C)cc2)c1=O [Compound 150, 2-(4-(((1-(4-tert-butylbenzyl)-5-oxo-4-propyl-4,5-dihydro-1H-1,2,4-triazol-3-yl)methoxy)carbonyl)phenoxy)-2-methylpropanoic acid] |
| Stable | < 1 nM | Stable |  | CCCCCCn1c(COC(=O)c2ccc(OC(C)(C)C(=O)O)cc2)nn(Cc2ccc(C)cc2)c1=O [Compound 151, 2-(4-(((4-hexyl-1-(4-methylbenzyl)-5-oxo-4,5-dihydro-1H-1,2,4-triazol-3-yl)methoxy)carbonyl)phenoxy)-2-methylpropanoic acid] |
|  |  | Mixed | 0.917 h | CC(C)(Sc1ccc(C(=O)OCCc2cn(Cc3ccc(C(F)(F)F)cc3)nn2)cc1)C(=O)O [Compound 91, 2-methyl-2-(4-((2-(1-(4-(trifluoromethyl)benzyl)-1H-1,2,3-triazol-4-yl)ethoxy)carbonyl)phenylthio)propanoic acid] |
|  | < 1 nM | CYP | 0.6 h | CCCCCCCn1c(COC(=O)c2ccc(OC(C)(C)C(=O)O)cc2)nn(Cc2ccc(C(C)(C)C)cc2)c1=O [Compound 190, 2-(4-(((1-(4-tert-butylbenzyl)-4-heptyl-5-oxo-4,5-dihydro-1H-1,2,4-triazol-3-yl)methoxy)carbonyl)phenoxy)-2-methylpropanoic acid] |
| Stable | 1 to 50 nM |  |  | CCCn1c(COC(=O)c2ccc(SC(C)(C)C(=O)O)cc2)nn(Cc2ccc(C(C)(C)C)cc2)c1=O [Compound 159, 2-(4-(((1-(4-tert-butylbenzyl)-5-oxo-4-propyl-4,5-dihydro-1H-1,2,4-triazol-3-yl)methoxy)carbonyl)phenylthio)-2-methylpropanoic acid] |
| Stable | < 1 nM |  |  | CC(C)(Sc1ccc(C(=O)OCc2cn(Cc3ccc(C(F)(F)F)cc3)nn2)cc1)C(=O)O [Compound 67, 2-methyl-2-(4-(((1-(4-(trifluoromethyl)benzyl)-1H-1,2,3-triazol-4-yl)methoxy)carbonyl)phenylthio)propanoic acid] |
|  |  | Esterase | 1 h | CC(C)(Sc1ccc(C(=O)OCc2cn(Cc3ccc(C(C)(C)C)cc3)nn2)cc1)C(=O)O [Compound 69, 2-(4-(((1-(4-tert-butylbenzyl)-1H-1,2,3-triazol-4-yl)methoxy)carbonyl)phenylthio)-2-methylpropanoic acid] |
|  | < 1 nM | Mixed | 0.55 h | CCCCCCCn1c(COC(=O)c2ccc(OC(C)(C)C(=O)O)cc2)nn(Cc2ccc(C)cc2)c1=O [Compound 192, 2-(4-(((4-heptyl-1-(4-methylbenzyl)-5-oxo-4,5-dihydro-1H-1,2,4-triazol-3-yl)methoxy)carbonyl)phenoxy)-2-methylpropanoic acid] |
|  | 1 to 50 nM | Esterase | 1.5 h | Cc1ccc(Cn2cc(COC(=O)c3ccc(SC(C)(C)C(=O)O)cc3)nn2)cc1 [Compound 60, 2-methyl-2-(4-(((1-(4-methylbenzyl)-1H-1,2,3-triazol-4-yl)methoxy)carbonyl)phenylthio)propanoic acid] |
|  | < 1 nM | Esterase | 3 h | CCCCCCCCn1c(COC(=O)c2ccc(OC(C)(C)C(=O)O)cc2)nn(Cc2ccc(C)cc2)c1=O [Compound 152, 2-methyl-2-(4-(((1-(4-methylbenzyl)-4-octyl-5-oxo-4,5-dihydro-1H-1,2,4-triazol-3-yl)methoxy)carbonyl)phenoxy)propanoic acid] |
|  |  | Esterase | 1 h | CCCc1nn(Cc2ccc(C(F)(F)F)cc2)cc1COC(=O)c1ccc(SC(C)(C)C(=O)O)cc1 [Compound 12, 2-methyl-2-(4-(((3-propyl-1-(4-(trifluoromethyl)benzyl)-1H-pyrazol-4-yl)methoxy)carbonyl)phenylthio)propanoic acid] |
